Reference: patent US20240158446A1, “CYCLIC COMPOUND HAVING SELECTIVE INHIBITORY ACTION ON KRAS OVER HRAS AND NRAS” (CHUGAI SEIYAKU KABUSHIKI KAISHA, priority 2021, published 2024)
Where two headings read alike, the source gives them in different places.

Key:
[1] = biological target: GDP-bound KRAS wild-type protein (Homo sapiens, UniProt P01116); experiment: Binding to KRAS by surface plasmon resonance (SPR), Single Cycle Kinetics; conditions: SPR, Single Cycle Kinetics
[2] = biological target: GDP-bound NRAS wild-type protein (Homo sapiens, UniProt P01111); experiment: Binding to NRAS by surface plasmon resonance (SPR), Single Cycle Kinetics; conditions: SPR; for NRAS/KRAS (ratio of KD value for NRAS to KD value for KRAS): GDP-bound NRAS wild-type protein vs GDP-bound KRAS wild-type protein
[3] = biological target: GDP-bound HRAS wild-type protein (Homo sapiens, UniProt P01112); experiment: Binding to HRAS by surface plasmon resonance (SPR), Single Cycle Kinetics; conditions: SPR; for HRAS/KRAS (ratio of KD value for HRAS to KD value for KRAS): GDP-bound HRAS wild-type protein vs GDP-bound KRAS wild-type protein
[4] = tested on: human lung cancer strain NCI-H441;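 note: cell proliferation inhibition after four days measured by CellTiter-Glo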
[5] = GDP-bound KRAS wild-type protein, read-out: KRAS KD
[6] = 1:1 binding model, GDP-bound KRAS wild-type protein, read-out: KRAS KD

GDP-bound KRAS wild-type protein, sequence (P01116 whole entry): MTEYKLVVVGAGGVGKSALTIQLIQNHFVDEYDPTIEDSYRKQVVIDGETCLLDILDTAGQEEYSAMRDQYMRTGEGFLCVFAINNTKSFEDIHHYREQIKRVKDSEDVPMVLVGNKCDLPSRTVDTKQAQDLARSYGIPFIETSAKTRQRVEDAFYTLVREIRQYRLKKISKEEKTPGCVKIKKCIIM
GDP-bound HRAS wild-type protein, sequence (P01112 whole entry): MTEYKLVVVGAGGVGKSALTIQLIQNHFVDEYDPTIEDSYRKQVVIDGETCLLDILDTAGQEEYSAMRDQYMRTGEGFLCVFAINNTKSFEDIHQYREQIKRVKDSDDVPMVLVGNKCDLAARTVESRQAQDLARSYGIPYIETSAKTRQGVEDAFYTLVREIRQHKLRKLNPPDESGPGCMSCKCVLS
GDP-bound NRAS wild-type protein, sequence (P01111 whole entry): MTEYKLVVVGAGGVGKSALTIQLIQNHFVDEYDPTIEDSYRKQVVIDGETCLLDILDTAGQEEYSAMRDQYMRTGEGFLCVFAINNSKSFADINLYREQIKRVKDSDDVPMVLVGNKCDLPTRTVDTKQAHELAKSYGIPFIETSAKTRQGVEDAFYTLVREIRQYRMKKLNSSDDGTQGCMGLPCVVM

Kd [1, 5] [pM]	Kd [1, 6] [pM]	IC50 [4] [pM]	Compound	NRAS/KRAS (ratio of KD value for NRAS to KD value for KRAS) ([2]; KD ratio class)	HRAS/KRAS (ratio of KD value for HRAS to KD value for KRAS) ([3]; KD ratio class)	NRAS/KRAS (ratio of KD value for NRAS to KD value for KRAS) [2]	HRAS/KRAS (ratio of KD value for HRAS to KD value for KRAS) [3]	also measured
53			CCCC[C@H]1C(=O)N[C@@H]([C@@H](C)CC)C(=O)N(C)CC(=O)N(C)[C@H]2C/C=C\CCN(C2=O)[C@@H](Cc2ccc(C(F)(F)F)cc2)C(=O)N(C)CC(=O)N[C@@H](CCc2cc(F)c(C(F)(F)F)c(F)c2)C(=O)N2C[C@H](OCC)C[C@H]2C(=O)NC2(CC(F)(F)C2)C(=O)N(C)[C@@H](C2CCCC2)C(=O)N(C)[C@H](C(=O)N(C)C)CC(=O)N1C [PP1740]					NRAS/KRAS (KD ratio) ([2]; ratio of KD for GDP-bound NRAS wild-type protein to KD for KRAS): A (a compound having 10 or more and less than 20 is denoted as A); HRAS/KRAS (KD ratio) ([3]; ratio of KD for GDP-bound HRAS wild-type protein to KD for KRAS): A (a compound having 10 or more and less than 20 is denoted as A); IC50 ([4]; read-out: NCI-H441 IC50, NCI-H441 cell proliferation, 4 days, CellTiter-Glo): 3600 pM
	170	9700	CCO[C@@H]1C[C@H]2C(=O)NC3(CC(C)(C)C3)C(=O)N(C)[C@@H](C3CCCC3)C(=O)N(C)[C@H](C(=O)N(CC)CC)CC(=O)N(C)[C@@H](CC)C(=O)N[C@@H]([C@@H](C)CC)C(=O)N(C)CC(=O)N(C)[C@H]3C/C=C\CCN(C3=O)[C@@H](Cc3ccc(C(F)(F)F)cc3)C(=O)N(C)CC(=O)N[C@@H](CCc3cc(F)c(C(F)(F)F)c(F)c3)C(=O)N2C1 [PP1580]	A (a compound having 10 or more and less than 20 is denoted as A)	A (a compound having 10 or more and less than 20 is denoted as A)			
110		25400	CCO[C@@H]1C[C@H]2C(=O)NC3(CC(C)(C)C3)C(=O)N(C)[C@@H](C3CCCC3)C(=O)N(C)[C@H](C(=O)N(C)CC)CC(=O)N(C)[C@@H](COC)C(=O)N[C@@H]([C@@H](C)CC)C(=O)N(C)CC(=O)N(C)[C@H]3C/C=C\CCN(C3=O)[C@@H](Cc3ccc(C)cc3)C(=O)N(C)CC(=O)N[C@@H](CCc3ccc(C(F)(F)F)c(OC)c3)C(=O)N2C1 [PP2392]			A (a compound having 10 or more and less than 20 is denoted as A)	A (a compound having 10 or more and less than 20 is denoted as A)	
	160	10200	CCO[C@@H]1C[C@H]2C(=O)NC3(CCC3)C(=O)N(C)[C@@H](C3CCCC3)C(=O)N(C)[C@H](C(=O)N3CCOCC3)CC(=O)N(C)[C@@H](CC(C)C)C(=O)N[C@@H]([C@@H](C)CC)C(=O)N3CC[C@H]3C(=O)N(C)[C@H]3C[C@@H](C)[C@@H](C)CN(C3=O)[C@@H](Cc3ccc(C(F)(F)F)cc3)C(=O)N(C)CC(=O)N[C@@H](CCc3cc(F)c(C(F)(F)F)c(F)c3)C(=O)N2C1 [PP1355]	A (a compound having 10 or more and less than 20 is denoted as A)	B (a compound having 3 or more and less than 10 is denoted as B)			
43		8900	CCO[C@@H]1C[C@H]2C(=O)NC3(CC(C)(C)C3)C(=O)N(C)[C@@H](C3CCCC3)C(=O)N(C)[C@H](C(=O)N(C)C)CC(=O)N(C)[C@@H](COC)C(=O)N[C@@H]([C@@H](C)CC)C(=O)N(C)CC(=O)N(C)[C@H]3C/C=C\CCN(C3=O)[C@@H](Cc3ccc(C)cc3)C(=O)N(C)CC(=O)N[C@@H](CCc3cc(F)c(C(F)(F)F)c(F)c3)C(=O)N2C1 [PP2391]			A (a compound having 10 or more and less than 20 is denoted as A)	A (a compound having 10 or more and less than 20 is denoted as A)	
180		4600	C#CCN1CC(=O)N(C)[C@H]2C/C=C\CCN(C2=O)[C@@H](Cc2ccc(C(F)(F)F)cc2)C(=O)N(C)CC(=O)N[C@@H](CCc2ccc(C(F)(F)F)c(OC)c2)C(=O)N2C[C@H](OCC)C[C@H]2C(=O)NC2(CC(C)(C)C2)C(=O)N(C)[C@@H](C2CCCC2)C(=O)N(C)[C@H](C(=O)N(C)C)CC(=O)N(C)[C@@H](CC)C(=O)N[C@@H]([C@@H](C)CC)C1=O [PP2091]			A (a compound having 10 or more and less than 20 is denoted as A)	B (a compound having 3 or more and less than 10 is denoted as B)	
330		53600	CCO[C@@H]1C[C@H]2C(=O)NC3(CCC3)C(=O)N(C)[C@@H](C3CCCC3)C(=O)N(C)[C@H](C(=O)N(C)C)CC(=O)N(C)[C@@H](CC)C(=O)N[C@@H]([C@@H](C)CC)C(=O)N(C)CC(=O)N(C)[C@H]3CCCCCN(C3=O)[C@@H](Cc3ccc(C(F)(F)F)cc3)C(=O)N(C)CC(=O)N[C@@H](CCc3ccc4sccc4c3)C(=O)N2C1 [PP0892]			B (a compound having 3 or more and less than 10 is denoted as B)	B (a compound having 3 or more and less than 10 is denoted as B)	
	200	42600	CCO[C@@H]1C[C@H]2C(=O)NC3(CCC3)C(=O)N(C)[C@@H](C3CCCC3)C(=O)N(C)[C@H](C(=O)N3CCOCC3)CC(=O)N(C)[C@@H](CC3CC3)C(=O)N[C@@H]([C@@H](C)CC)C(=O)N(C)CC(=O)N(C)[C@H]3C/C=C\CCN(C3=O)[C@@H](Cc3ccc(C(F)(F)F)cc3)C(=O)N(C)CC(=O)N[C@@H](CCc3cc(F)c(C(F)(F)F)c(F)c3)C(=O)N2C1 [PP1283]	AA (a compound having 20 or more is denoted as AA)	A (a compound having 10 or more and less than 20 is denoted as A)			
	880	67900	CCCCCC[C@H]1C(=O)N[C@@H]([C@@H](C)CC)C(=O)N(C)CC(=O)N(C)[C@H]2C/C=C\CCN(C2=O)[C@@H](Cc2ccc(C(F)(F)F)cc2)C(=O)N(C)CC(=O)N[C@@H](CCc2ccc(Cl)c(Cl)c2)C(=O)N2C[C@H](OCC)C[C@H]2C(=O)NC2(CCC2)C(=O)N(C)[C@@H](C(CC)CC)C(=O)N(C)[C@H](C(=O)N(C)C)CC(=O)N1C [PP1218]	AA (a compound having 20 or more is denoted as AA)	A (a compound having 10 or more and less than 20 is denoted as A)			

Compound	Kd [1, 5] [pM]	Kd [1, 6] [pM]	IC50 [4] [pM]	NRAS/KRAS (ratio of KD value for NRAS to KD value for KRAS) ([2]; KD ratio class)	HRAS/KRAS (ratio of KD value for HRAS to KD value for KRAS) ([3]; KD ratio class)	NRAS/KRAS (ratio of KD value for NRAS to KD value for KRAS) [2]	HRAS/KRAS (ratio of KD value for HRAS to KD value for KRAS) [3]	also measured
CCO[C@@H]1C[C@H]2C(=O)NC3(CC(C)(C)C3)C(=O)N(C)[C@@H](C3CCCC3)C(=O)N(C)[C@H](C(=O)N3CCCCC3)CC(=O)N(C)[C@H]3CCCCc4ccc(cc4)C[C@@H](C(=O)N(C)CC(=O)N[C@@H](CCc4ccc(C(F)(F)F)c(OC)c4)C(=O)N2C1)N1CC/C=C\C[C@@H](C1=O)N(C)C(=O)CN(C)C(=O)[C@H]([C@@H](C)CC)NC3=O [PP3093, (1S,7S,11R,13S,19S,22S,26S,29S,35S,37Z)-19-cyclopentyl-11-ethoxy-7-[2-[3-methoxy-4-(trifluoromethyl)phenyl]ethyl]-3,3′,3′,18,21,25,31,34-octamethyl-29-[(1S)-1-methylpropyl]-22-(piperidine-1-carbonyl)spiro[3,6,9,15,18,21,25,28,31,34,41-undecazapentacyclo[24.15.9.2^43,46.1^35,41.0^9,13]tripentaconta-37,43(52),44,46(51)-tetraene-16,1′-cyclobutane]-2,5,8,14,17,20,24,27,30,33,53-undecone]	97					A (a compound having 10 or more and less than 20 is denoted as A)	A (a compound having 10 or more and less than 20 is denoted as A)	Kd ([1]; 1:1 binding model, read-out: KD value with respect to GDP-bound KRAS wild-type protein): 97 pM; ratio of the KD value with respect to GDP-bound NRAS wild-type protein to the KD value with respect to KRAS ([2]; KD(NRAS)/KD(KRAS)): A (a compound having 10 or more and less than 20 is denoted as A); ratio of the KD value with respect to GDP-bound HRAS wild-type protein to the KD value with respect to KRAS ([3]; KD(HRAS)/KD(KRAS)): A (a compound having 10 or more and less than 20 is denoted as A); IC50 ([4]; read-out: NCI-H441 cell proliferation inhibitory activity, 50% proliferation inhibitory concentration (IC50 value), NCI-H441, four days, CellTiter-Glo): 3200 pM
